Experiments:
[1] = molecular target: T1, ATM kinase (Homo sapiens, UniProt Q13315); test: ATM kinase inhibition in irradiated cells, western blot time course; format: cell-based; settings: MDA-MB-435S or MDA-MB-231, 10 μM, time course after irradiation
T1 construct: endogenous in cells; host or cells: MDA-MB-435S, MDA-MB-231 (ATCC)
Procedure: Met protein expression, Chk2 phosphorylation (p-Chk2) and p65/RelA nuclear translocation in MDA-MB-435S treated with the ATM kinase inhibitor CGK733, and extracted at the indicated time-points after irradiation. ctrl, non-irradiated cells at time zero.
Cell lines (A549, MDA-MB-231, LoVo, MDAMB-4355, U-87MG, U-251, PC3, SF295, DLD1, SK-N-SH) were from ATCC. For ATM kinase inhibition, cells were pre-treated for 4 h before irradiation and then kept in the presence of CGK733 (10 μM in DMSO). siRNAs targeting RELA (ON-TARGET plus SMART pool L-003533-00 Human RELA, NM 021975, Dharmacon, 100 nM), or control siRNAs (ON-TARGET plus SMART pool, siCONTROL Non Targeting siRNA, Dharmacon) were transiently transfected.
Protein expression was investigated in irradiated confluent, serum-starved cells. For fractionation in cytoplasmic and nuclear portions, cells were washed and incubated on ice for 10 min in “buffer A” (10 mM HEPES pH 7.9, 10 mM KCl, 0.1 mM EDTA, 0.5% NP-40, 1 mM dithiothreitol, 1 mM phenylmethylsulfonyl fluoride and a cocktail of protease inhibitors). Supernatants, containing the cytoplasmic extracts, were separated by centrifugation. Pellets were resuspended in “buffer B” (20 mM HEPES pH 7.9, 400 mM KCl, 1 mM EDTA, 1 mM dithiothreitol, 10% glycerol, 1 mM phenylmethylsulfonyl fluoride and a cocktail of protease inhibitors) and incubated at 4° C. for 1 h with vigorous mixing. The resulting nuclear lysates were clarified by high-speed centrifugation. Equal amount of proteins were resolved by SDS-PAGE and analysed by western blot with the following primary antibodies: mouse anti-human Met (DL21 disclosed in Prat et al., Int. J. Cancer 49, 323-328 (1991)), mouse anti-p65/RelA and mouse anti-HIF-1α (BD Biosciences), rabbit anti-phospho-Ser276 and rabbit anticaspase-3 (Cell Signaling), rabbit anti-phospho-Chk2 (T68, R&D Systems). Goat anti-actin (C-11; Santa Cruz Biotechnology) and mouse anti-lamin B (Calbiochem) were used for control of equal cytoplasmic or nuclear protein loading, respectively. […] Densitometric analysis was performed with Quantity One 1-D (Bio-Rad Laboratories). […]

[2] = molecular target: T2, Met (Homo sapiens, UniProt P08581); test: Met phosphorylation (immunoprecipitation, anti-phospho-Tyr western blot) in MDA-MB-231; format: cell-based; settings: MDA-MB-231, HGF 50 ng/ml (non-saturating)
T2 construct: Met phosphorylation in MDA-MB-231 treated with HGF (50 nM) and/or IR (10 Gy); endogenous in cells; host or cells: MDA-MB-231 (ATCC)
T2 sequence (P08581 25-1390): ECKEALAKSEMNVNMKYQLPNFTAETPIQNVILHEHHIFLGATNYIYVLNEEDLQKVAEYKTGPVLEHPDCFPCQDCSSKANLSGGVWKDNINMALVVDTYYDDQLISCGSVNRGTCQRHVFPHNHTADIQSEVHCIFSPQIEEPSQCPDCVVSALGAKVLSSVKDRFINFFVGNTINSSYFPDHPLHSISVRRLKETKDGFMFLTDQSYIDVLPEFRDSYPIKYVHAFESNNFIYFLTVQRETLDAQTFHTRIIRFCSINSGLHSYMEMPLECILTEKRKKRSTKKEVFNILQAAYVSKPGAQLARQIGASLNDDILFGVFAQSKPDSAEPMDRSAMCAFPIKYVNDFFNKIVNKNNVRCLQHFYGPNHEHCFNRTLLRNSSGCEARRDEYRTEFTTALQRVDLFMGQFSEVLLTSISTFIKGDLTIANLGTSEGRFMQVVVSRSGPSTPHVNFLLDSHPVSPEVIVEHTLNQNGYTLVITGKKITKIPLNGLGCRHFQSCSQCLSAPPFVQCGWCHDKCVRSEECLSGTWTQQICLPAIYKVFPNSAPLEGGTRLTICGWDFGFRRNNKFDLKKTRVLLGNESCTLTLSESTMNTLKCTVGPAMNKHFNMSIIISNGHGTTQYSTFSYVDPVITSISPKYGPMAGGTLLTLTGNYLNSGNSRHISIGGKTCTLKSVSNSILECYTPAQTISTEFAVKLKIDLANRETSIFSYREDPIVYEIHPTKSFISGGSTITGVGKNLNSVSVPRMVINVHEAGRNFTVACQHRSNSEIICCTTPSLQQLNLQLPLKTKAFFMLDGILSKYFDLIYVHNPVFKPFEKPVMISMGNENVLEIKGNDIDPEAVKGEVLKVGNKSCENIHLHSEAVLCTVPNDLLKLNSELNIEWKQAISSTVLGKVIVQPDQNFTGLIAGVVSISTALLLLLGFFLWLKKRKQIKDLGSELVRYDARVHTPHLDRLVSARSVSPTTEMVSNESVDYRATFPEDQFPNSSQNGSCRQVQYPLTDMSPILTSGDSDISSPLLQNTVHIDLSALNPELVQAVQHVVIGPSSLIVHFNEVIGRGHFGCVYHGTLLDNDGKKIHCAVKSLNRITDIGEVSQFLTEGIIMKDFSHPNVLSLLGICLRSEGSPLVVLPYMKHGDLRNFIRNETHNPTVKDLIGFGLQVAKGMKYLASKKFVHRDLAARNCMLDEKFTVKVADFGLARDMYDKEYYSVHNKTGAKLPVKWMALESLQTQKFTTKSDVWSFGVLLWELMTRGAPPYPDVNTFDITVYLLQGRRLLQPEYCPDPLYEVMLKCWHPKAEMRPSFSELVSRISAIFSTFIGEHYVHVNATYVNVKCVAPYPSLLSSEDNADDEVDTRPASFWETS

[3] = test system: MDA-MB-4355 spheroids; test: Branching morphogenesis assay; format: cell-based, human; settings: HGF 5 nM alone (suboptimal concentration), non-irradiated MDA-MB-4355
Procedure: a, Basement membrane invasion by irradiated MDA-MB-231 or U-251 (10 Gy; ctrl, control). Micrographs of transwell filters (10×). b, Aberrant Met-induced branching morphogenesis in irradiated MDA-MB-4355 (10 Gy; ctrl, control), cultured with or without (−) the indicated HGF concentrations. Scale bar: 100 μm.
MDA-MB-4355 spheroids were preformed by single-cell resuspension in 240 mg/ml methylcellulose (Sigma) and culture in nonadherent 96-well plates (Greiner) for 24 h. Spheroids were transferred into a matrix containing 1.3 mg/ml type I collagen from rat tail (BD Biosciences), 10% FBS, and 240 mg/ml methylcellulose. After 24 h, cells were irradiated and/or cultured in the presence of HGF for 7 days. HGF was obtained as a baculovirus recombinant protein in SF9 cells. The conditioned medium from uninfected cells was used as negative control. Images are representative of results obtained in three independent experiments.

[4] = test system: U-251; test: Cell viability assay with DN30 Fab, with irradiation (10 Gy); format: cell-based, human
Procedure: Viability of U-251 irradiated with 10 Gy and/or cultured in the presence of the Fab fragment of the DN30 anti-Met antibody, for 48 h (vehicle: non-irradiated cells). Columns: mean of triplicate analyses of three independent experiments±s.e.m. […] Columns: percentage of cells generating clones (mean of triplicate analyses of two independent experiments±s.e.m., * p<0.05, n=6, paired t-test).
10^3 cells were seeded in 96-well plates and grown for 24 h. Culture medium was replaced with medium containing 1% FBS and DN30 Fab (28 μg/ml) or the vehicle alone (PBS). After 24 h, cells were irradiated (10 Gy). Cell viability was assessed as above.

T1 sequence (Q13315 whole entry): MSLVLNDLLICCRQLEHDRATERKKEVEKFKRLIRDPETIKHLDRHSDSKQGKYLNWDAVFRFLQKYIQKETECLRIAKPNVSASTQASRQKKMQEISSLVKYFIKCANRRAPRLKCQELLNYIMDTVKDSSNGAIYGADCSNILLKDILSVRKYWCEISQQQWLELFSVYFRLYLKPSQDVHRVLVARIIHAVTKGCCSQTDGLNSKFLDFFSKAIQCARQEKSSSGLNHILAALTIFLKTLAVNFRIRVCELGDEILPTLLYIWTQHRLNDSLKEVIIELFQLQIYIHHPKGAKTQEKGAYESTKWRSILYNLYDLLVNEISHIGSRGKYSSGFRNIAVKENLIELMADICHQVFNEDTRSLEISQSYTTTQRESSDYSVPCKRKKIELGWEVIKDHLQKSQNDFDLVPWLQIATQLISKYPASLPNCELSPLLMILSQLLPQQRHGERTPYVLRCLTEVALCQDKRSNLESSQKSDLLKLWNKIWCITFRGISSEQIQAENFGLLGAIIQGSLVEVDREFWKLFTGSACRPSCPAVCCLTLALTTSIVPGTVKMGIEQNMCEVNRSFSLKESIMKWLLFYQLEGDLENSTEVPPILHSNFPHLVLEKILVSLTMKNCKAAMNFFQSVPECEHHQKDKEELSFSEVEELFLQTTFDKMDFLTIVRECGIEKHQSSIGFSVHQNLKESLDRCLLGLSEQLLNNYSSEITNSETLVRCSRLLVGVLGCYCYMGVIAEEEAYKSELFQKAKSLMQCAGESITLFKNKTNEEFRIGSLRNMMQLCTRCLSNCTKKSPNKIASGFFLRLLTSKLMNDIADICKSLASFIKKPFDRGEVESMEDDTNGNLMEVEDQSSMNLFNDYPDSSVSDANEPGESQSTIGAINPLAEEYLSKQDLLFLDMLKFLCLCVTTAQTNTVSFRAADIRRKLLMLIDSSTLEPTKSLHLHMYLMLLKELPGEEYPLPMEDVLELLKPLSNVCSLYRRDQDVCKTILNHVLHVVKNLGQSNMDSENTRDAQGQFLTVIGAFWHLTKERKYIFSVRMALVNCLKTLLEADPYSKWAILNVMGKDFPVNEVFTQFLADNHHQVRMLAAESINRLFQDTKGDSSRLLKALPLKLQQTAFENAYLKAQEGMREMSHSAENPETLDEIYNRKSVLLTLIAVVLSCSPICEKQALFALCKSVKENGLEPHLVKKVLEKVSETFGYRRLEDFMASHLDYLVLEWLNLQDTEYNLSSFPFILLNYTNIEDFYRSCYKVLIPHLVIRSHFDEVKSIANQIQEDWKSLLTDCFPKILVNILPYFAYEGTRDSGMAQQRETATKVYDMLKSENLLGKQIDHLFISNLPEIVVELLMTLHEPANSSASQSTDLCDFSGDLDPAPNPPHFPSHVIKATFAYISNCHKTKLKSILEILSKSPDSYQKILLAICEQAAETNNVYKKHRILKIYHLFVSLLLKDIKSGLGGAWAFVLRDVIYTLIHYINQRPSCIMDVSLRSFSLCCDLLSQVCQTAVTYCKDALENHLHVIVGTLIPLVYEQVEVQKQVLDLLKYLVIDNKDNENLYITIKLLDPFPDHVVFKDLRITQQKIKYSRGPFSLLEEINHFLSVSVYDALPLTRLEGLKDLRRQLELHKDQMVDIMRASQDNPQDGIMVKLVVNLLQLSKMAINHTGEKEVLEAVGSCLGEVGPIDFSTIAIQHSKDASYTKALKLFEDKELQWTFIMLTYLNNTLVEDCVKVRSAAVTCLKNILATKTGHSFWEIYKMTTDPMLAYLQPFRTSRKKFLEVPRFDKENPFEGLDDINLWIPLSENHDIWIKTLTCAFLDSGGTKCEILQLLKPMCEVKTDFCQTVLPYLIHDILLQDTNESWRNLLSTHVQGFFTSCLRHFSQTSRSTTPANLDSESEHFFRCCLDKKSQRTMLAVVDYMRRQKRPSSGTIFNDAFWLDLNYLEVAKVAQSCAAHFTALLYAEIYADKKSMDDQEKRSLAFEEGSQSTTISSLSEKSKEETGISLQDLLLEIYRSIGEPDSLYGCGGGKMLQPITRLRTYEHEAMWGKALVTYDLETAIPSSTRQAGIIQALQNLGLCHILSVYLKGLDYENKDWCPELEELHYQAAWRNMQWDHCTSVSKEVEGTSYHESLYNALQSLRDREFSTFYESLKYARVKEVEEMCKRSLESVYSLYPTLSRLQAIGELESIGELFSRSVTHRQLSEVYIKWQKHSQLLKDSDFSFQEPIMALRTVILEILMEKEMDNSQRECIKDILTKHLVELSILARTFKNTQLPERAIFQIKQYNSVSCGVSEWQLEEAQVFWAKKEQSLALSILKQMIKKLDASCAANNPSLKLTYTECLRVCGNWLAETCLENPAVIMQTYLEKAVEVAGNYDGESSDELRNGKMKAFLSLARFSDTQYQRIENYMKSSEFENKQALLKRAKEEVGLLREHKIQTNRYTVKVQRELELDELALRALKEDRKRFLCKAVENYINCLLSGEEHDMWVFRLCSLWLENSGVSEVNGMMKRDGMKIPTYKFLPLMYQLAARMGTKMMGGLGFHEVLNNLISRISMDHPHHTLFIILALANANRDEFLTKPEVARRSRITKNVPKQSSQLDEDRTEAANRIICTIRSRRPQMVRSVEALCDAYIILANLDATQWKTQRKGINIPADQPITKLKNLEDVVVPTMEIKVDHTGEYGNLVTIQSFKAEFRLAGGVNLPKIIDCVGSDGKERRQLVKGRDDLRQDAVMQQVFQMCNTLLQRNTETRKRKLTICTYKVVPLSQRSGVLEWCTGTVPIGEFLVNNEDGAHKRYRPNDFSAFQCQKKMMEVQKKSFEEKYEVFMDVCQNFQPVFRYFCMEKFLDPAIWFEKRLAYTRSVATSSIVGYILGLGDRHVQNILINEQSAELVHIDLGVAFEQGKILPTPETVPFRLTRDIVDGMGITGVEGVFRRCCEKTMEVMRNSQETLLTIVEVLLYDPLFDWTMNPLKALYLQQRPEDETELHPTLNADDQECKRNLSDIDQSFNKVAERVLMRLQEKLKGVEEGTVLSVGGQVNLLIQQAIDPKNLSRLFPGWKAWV

O=C(NC(NC(=S)Nc1ccc(F)c([N+](=O)[O-])c1)C(Cl)(Cl)Cl)C(c1ccccc1)c1ccccc1 (stereo not shown) [CGK733]
IR-induced Met protein overexpression [1]: prevented | IR-induced p65/RelA nuclear translocation [1]: prevented | IR-induced phosphorylation of the specific ATM substrate Chk2 [1]: prevented

HGF: Hepatocyte Growth Factor, Met ligand, obtained as a baculovirus recombinant protein in SF9 cells
time to peak of Met phosphorylation [2]: 30 min | induction of branching morphogenesis [3]: incapable of inducing branching morphogenesis

B1: Fab fragment of the DN30 anti-Met antibody: Fab fragment obtained through DN30 papain digestion and affinity purification; induces MET down-regulation (antibody)
heavy: QVQLQQPGTELVKPGASVKLSCKASGYTFTSYWIHWVKQRPGQGLEWIGEINPSSGRTNYNEKFKNKVTVTVDKSSTTAYMQLSNLTSEDSAVYYCASRGYWGQGTTLTVSSAKTTAPSVYPLAPVCGNTTGSSVTLGCLVKGYFPEPVTLTWNSGSLSSGVHTFPAVLQSDLYTLSSSVTVTSSTWPSQSITCNVAHPASSTKVDKKIEPRGPTIKPCPPCKCPAPNLLGGPSVFIFPPKIKDVLMISLSPIVTCVVVDVSEDDPDVQISWFVNNVEVHTAQTQTHREDYNSTLRVVSALPIQHQDWMSGKEFKCKVNNKDLPAPIERTISKPKGSVRAPQVYVLPPPEEEMTKKQVTLTCMVTDFMPEDIYVEWTNNGKTELNYKNTEPVLDSDGSYFMYSKLRVEKKNWVERNSYSCSVVHEGLHNHHTTKSFSRTPGK
light: DIVLTQSPASLAVSLGQRATISCKASQSVDYDGGSYMSWFQQRPGQPPKLLISAASNLESGIPARFSGSGSGTDFTLNIHPVEEEDVATYYCQQSYEDPLTFGAGTKLELKRADAAPTVSIFPPSSEQLTSGGASVVCFLNNFYPKDINVKWKIDGSERQNGVLNSWTDQDSKDSTYSMSSTLTLTKDEYERHNSYTCEATHKTSTSPIVKSFNRNEC
Viability of U-251 (combination vs single treatments) ([4]; U-251 irradiated with 10 Gy and cultured with DN30 Fab for 48 h, p<0.05, n=9): viability significantly reduced with respect to either Fab-DN30 or 10 Gy alone | cell viability decrease ([4]; irradiated cells kept in the presence of DN30 Fab (28 μg/ml), 10 Gy): up to 75%
